Tests used:
[1] = target: T1, Nectin-4 (Homo sapiens, UniProt Q96NY8); test: In vivo Nectin-4 engagement by EV, SCaBER tumors (ex vivo biodistribution of [^68Ga]AJ647); set-up: species or system mouse; details: NSG mice, single i.v. dose of EV (15 mg/kg in text, 20 mpk in legend/methods) 24 hours before tracer, ex vivo biodistribution 60 min, n=5, P < 0.001
T1 construct: host or cells: HT1376, SCaBER, T24, RT112, UC9, UC14 urothelial carcinoma cells; HT1376 xenografts in NSG mice
T1 sequence (Q96NY8 32-510): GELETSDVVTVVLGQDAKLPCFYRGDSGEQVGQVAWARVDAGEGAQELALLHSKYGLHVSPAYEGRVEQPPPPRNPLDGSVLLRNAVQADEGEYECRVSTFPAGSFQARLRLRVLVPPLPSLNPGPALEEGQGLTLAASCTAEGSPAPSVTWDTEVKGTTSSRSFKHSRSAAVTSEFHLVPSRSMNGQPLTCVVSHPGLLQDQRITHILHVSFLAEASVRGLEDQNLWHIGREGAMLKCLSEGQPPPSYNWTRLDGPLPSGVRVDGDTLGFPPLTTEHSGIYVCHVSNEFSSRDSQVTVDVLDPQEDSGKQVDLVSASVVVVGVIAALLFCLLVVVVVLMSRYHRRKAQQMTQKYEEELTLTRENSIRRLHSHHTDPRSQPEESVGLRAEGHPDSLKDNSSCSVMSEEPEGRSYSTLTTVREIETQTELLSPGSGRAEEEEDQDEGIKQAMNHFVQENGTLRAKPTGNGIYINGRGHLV
Experimental: To validate imaging studies, ex vivo biodistribution studies were conducted in mice with tumors of size 100–200 mm^3. Mice received ~50 μCi (1.85 MBq) of [^68Ga]AJ647 in […] of 5% ethanol in saline intravenously and mice were sacrificed at 5–180 min after [^68Ga]AJ647 injection for pharmacokinetic evaluation (n=4 per timepoint). In all other studies, 60 min time-point was chosen. Selected tissues (Blood, Skin, Muscle, Bone, Salivary glands, Tumor, Lungs, Heart, Liver, Pancreas, Spleen, Kidneys, Bladder, Testicles) were collected, weighed, counted, and their %IA/g values calculated as described previously (PMID: 37793856). For EV pharmacodynamics studies, fewer organs were harvested to accommodate more number of mice.
Male NSG mice were implanted subcutaneously with HT1376 and SCaBER cells (4 million each) on the right and left rostral end, respectively. On day 25 after cell inoculation (average tumor volume=200±35 mm^3), mice were randomized and treated with a single dose of either saline or 20 mpk EV ADC injected intravenously (volume not exceeding 300 μL) or with 200 μL saline (n=7/group). 24 hours following the EV dose, [^68Ga]AJ647 PET scans (n=2/group) were acquired and ex vivo biodistribution (n=5/group) was performed using the protocols mentioned above.

[2] = tested on: HT1376 tumors; test: EV therapy response and PET target engagement, HT1376 xenografts; type: in vivo, mouse
Experimental: Mice with tumor volume of ~100-150 mm^3 were injected with ~[…] (7.4 MBq) of [^68Ga]AJ647 in […] of 5% ethanol in saline intravenously and anesthetized under 2.5% isoflurane. PET-CT images were acquired at 60 minutes after radiotracer injection at 5 min/bed in an ARGUS small-animal PET/CT scanner (Sedecal, Madrid, Spain) as described (n=3 unless otherwise noted). PET-MR images were acquired on a simultaneous 7T Bruker PET-MR scanner. Dynamic imaging was conducted to evaluate pharmacokinetics of [^68Ga]AJ647. [^68Ga]AJ647 was injected (with help of catheter) after mice was anesthetized under 2.5% isoflurane on the equipment bed. All PET data were reconstructed using the two-dimensional ordered subsets-expectation maximization algorithm (2D-OSEM) and corrected for radioactive decay and dead time. The SUV values were calculated by finding percent of injected activity (%IA) based on a calibration factor obtained from a known radioactive quantity, then normalizing by mice weight. […] For change in accessible Nectin-4 levels following EV treatment, ΔSUV was calculated by subtracting baseline (pre-treatment) uptake from post-therapy uptake of [^68Ga]AJ647. Target engagement was quantified by normalizing this change by initial SUV in same subject controls. […] Mice body weight and tumor measurements were recorded until saline group tumors reached 1500 mm^3 average size. […] Briefly, the percentage change in volume relative to baseline: % tumor volume change (ΔVolt) = 100% × ((Vt -[…]). BestResponse was the lowest ΔVolt for t ≥ 10 days. For each time t, the average ΔVolt from t = 0 to t was calculated, with the BestAvgResponse defined as the lowest average ΔVolt for t ≥ 10 days. Modified response criteria (mRECIST), adapted from RECIST21, were as follows: mCR (BestResponse < -95%, BestAvgResponse < -40%), mPR (BestResponse < -50%, BestAvgResponse < -20%), mSD (BestResponse < 35%, BestAvgResponse < 30%), and mPD (all others). We defined mPD as non-responders (0 response) and stable disease or better as responders (1 response). […]

**Q.** With enfortumab vedotin [EV] as the substance, how does the “reduction in [^68Ga]AJ647 uptake in EV-treated tumors compared to controls” value [1] read?
**A.** 72%

**Q.** And the “share of mice with less than 50% target engagement” value ([2]; EV 6 and 15 mg/kg groups, day 6 PET)?
**A.** 50%

**Q.** And the “responders (mRECIST, stable disease or better)” value ([2]; EV-treated mice with higher target engagement, irrespective of dose)?
**A.** 7/8

**Q.** What about the “responders (mRECIST, stable disease or better)” value ([2]; EV-treated mice with less than 30% target engagement) of the same substance?
**A.** 0/12
